# Laboratory results published in the supplement of paper PMC10307832.
# Compound: Cc1nc(NC(=O)N2CCC[C@H]2C(N)=O)sc1-c1ccnc(C(C)(C)C(F)(F)F)c1 [Alpelisib] + NC(=O)Nc1cc(-c2cccc(F)c2)sc1C(=O)N[C@H]1CCCNC1 [AZD7762] (partner 0.2 µM)
# Assay: relative viability (nuclei count vs DMSO), 5 days (fraction); higher = more cells survive
# Details: first compound 1.265 µM
# Summary of the method: (§1)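 Relative viability equals treated-well nuclei counts divided by vehicle-well nuclei counts. Counts came from 4× images of lung cancer cell lines grown in 1536-well plates for 5 days after pin-tool dosing on the day after seeding. Dosing used one drug alone or a fixed anchor-drug dose plus five library-drug doses (not always all listed) in √10 steps, and values are medians of duplicate plates.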
row,Cell Line,relative viability
1,NCI-H2347,0.81
2,LXF-289,1.18
3,NCI-H1666,0.865
4,RERF-LC-KJ,0.762
5,NCI-H650,0.773
6,NCI-H322M,0.424
7,NCI-H596,0.725
8,201T,0.477
9,NCI-H441,1.22
10,HCC-78,0.362

# Same assay, conditions: first compound 4 µM
row,Cell Line,relative viability
1,NCI-H1915,0.611
2,NCI-H838,0.86
3,A-427,0.617
4,ABC-1,0.69
5,EKVX,0.533
6,NCI-H2087,1.36
7,NCI-H1734,0.209
8,LCLC-103H,0.591
9,LU99A,0.398
10,NCI-H460,0.404
11,HCC-15,0.908
12,EMC-BAC-2,0.581
13,NCI-H1792,0.36
14,LC-2-ad,0.583
15,NCI-H2085,0.865
16,NCI-H727,0.555
17,NCI-H647,0.325

row,Cell Line,relative viability
1,HARA,0.442
2,NCI-H3122,0.589
3,CAL-12T,0.643
4,LCLC-97TM1,0.166
5,NCI-H23,0.224
6,HCC-827,0.168
7,NCI-H2347,0.764
8,LXF-289,1.27
9,NCI-H1666,0.711
10,RERF-LC-KJ,0.724
11,NCI-H650,0.837
12,NCI-H322M,0.458
13,NCI-H596,0.472
14,201T,0.469
15,NCI-H441,1.07
16,HCC-78,0.377

# Compound: CCCS(=O)(=O)Nc1ccc(F)c(C(=O)c2c[nH]c3ncc(-c4ccc(Cl)cc4)cc23)c1F [Vemurafenib] + CC(C)C[C@H](NC(=O)[C@H](Cc1ccccc1)NC(=O)c1cnccn1)B(O)O [Bortezomib] (partner 0.002 µM)
# Assay: as above
# Details: first compound 0.03162 µM
# Summary of the method: as §1
row,Cell Line,relative viability
1,NCI-H1915,0.894
2,NCI-H838,0.707
3,A-427,0.885
4,ABC-1,0.268
5,EKVX,0.895
6,NCI-H2087,0.759
7,NCI-H1734,0.855
8,LCLC-103H,0.975
9,LU99A,1.02
10,NCI-H460,0.982
11,HCC-15,0.958
12,EMC-BAC-2,0.984
13,NCI-H1792,0.875
14,LC-2-ad,0.918
15,NCI-H2085,1.05
16,NCI-H727,0.927
17,NCI-H647,0.881

row,Cell Line,relative viability
1,HARA,1.08
2,NCI-H3122,0.989
3,CAL-12T,0.835
4,LCLC-97TM1,0.495
5,NCI-H23,1
6,HCC-827,0.968
7,NCI-H2347,0.737
8,LXF-289,1.01
9,NCI-H1666,0.839
10,RERF-LC-KJ,1.04
11,NCI-H650,0.668
12,NCI-H322M,1.2
13,NCI-H596,1.05
14,201T,1.07
15,NCI-H441,0.336
16,HCC-78,0.433

# Same assay, conditions: first compound 0.1 µM
row,Cell Line,relative viability
1,NCI-H1915,0.995
2,NCI-H838,0.723
3,A-427,0.998
4,ABC-1,0.302
5,NCI-H2087,0.701
6,NCI-H1734,1.01
7,LCLC-103H,1.04
8,LU99A,1.07
9,NCI-H460,1.1
10,HCC-15,1.01
11,EMC-BAC-2,1.02
12,NCI-H1792,0.951
13,LC-2-ad,0.956
14,NCI-H2085,0.91
15,NCI-H727,0.812
16,NCI-H647,0.96
17,NCI-H3122,1.01
18,LCLC-97TM1,0.587
19,NCI-H23,1.01
20,NCI-H2347,0.79
21,LXF-289,0.953
22,RERF-LC-KJ,1.06
23,NCI-H650,0.899
24,NCI-H596,0.896
25,201T,0.998
26,NCI-H441,0.482
27,HCC-78,0.439

# Same assay, conditions: first compound 0.3162 µM
row,Cell Line,relative viability
1,NCI-H1915,0.886
2,A-427,0.962
3,ABC-1,0.267
4,EKVX,1.03
5,NCI-H1734,0.709
6,LCLC-103H,0.843
7,LU99A,1.05
8,NCI-H460,0.932
9,HCC-15,0.848
10,EMC-BAC-2,0.899
11,NCI-H1792,0.721
12,LC-2-ad,0.829
13,NCI-H2085,0.914
14,NCI-H727,1.35
15,NCI-H647,0.739
16,HARA,0.603
17,NCI-H3122,1.04
18,LCLC-97TM1,0.528
19,NCI-H23,1.15
20,HCC-827,0.765
21,NCI-H2347,0.712
22,LXF-289,0.966
23,NCI-H1666,0.98
24,RERF-LC-KJ,1.06
25,NCI-H650,0.443
26,NCI-H322M,1.43
27,NCI-H596,0.802
28,201T,1.15
29,HCC-78,0.674

# Same assay, conditions: first compound 1 µM
row,Cell Line,relative viability
1,NCI-H1915,0.91
2,NCI-H838,1.15
3,A-427,1.03
4,ABC-1,0.287
5,EKVX,1.05
6,NCI-H2087,0.753
7,NCI-H1734,0.815
8,LCLC-103H,1.09
9,LU99A,1.04
10,NCI-H460,1.04
11,HCC-15,0.844
12,EMC-BAC-2,0.835
13,NCI-H1792,0.957
14,LC-2-ad,0.976
15,NCI-H2085,0.847
16,NCI-H727,0.54
17,NCI-H647,0.874

row,Cell Line,relative viability
1,HARA,1.12
2,NCI-H3122,1.07
3,CAL-12T,0.974
4,LCLC-97TM1,0.742
5,NCI-H23,1.29
6,HCC-827,1.16
7,NCI-H2347,1.02
8,LXF-289,1.1
9,NCI-H1666,0.759
10,RERF-LC-KJ,1.19
11,NCI-H650,0.423
12,NCI-H322M,1.2
13,NCI-H596,1.05
14,201T,1.17
15,NCI-H441,0.412
16,HCC-78,0.506

# Compound: CCCS(=O)(=O)Nc1ccc(F)c(C(=O)c2c[nH]c3ncc(-c4ccc(Cl)cc4)cc23)c1F [Vemurafenib] + CS(=O)(=O)N1CCN(Cc2cc3nc(-c4cccc5[nH]ncc45)nc(N4CCOCC4)c3s2)CC1 [Pictilisib] (partner 1 µM)
# Assay: as above
# Details: first compound 0.03162 µM
# Summary of the method: as §1
row,Cell Line,relative viability
1,NCI-H1915,0.751
2,NCI-H838,0.401
3,A-427,0.751
4,ABC-1,0.751
5,EKVX,0.446
6,NCI-H2087,0.728
7,NCI-H1734,0.452
8,LCLC-103H,0.585
9,LU99A,0.282
10,NCI-H460,0.332
11,HCC-15,0.653
12,EMC-BAC-2,0.46
13,NCI-H1792,0.272
14,LC-2-ad,0.436
15,NCI-H2085,0.421
16,NCI-H727,0.353
17,NCI-H647,0.343

row,Cell Line,relative viability
1,HARA,0.41
2,NCI-H3122,0.596
3,CAL-12T,0.407
4,LCLC-97TM1,0.195
5,NCI-H23,0.531
6,HCC-827,0.791
7,NCI-H2347,0.328
8,LXF-289,0.711
9,NCI-H1666,0.387
10,RERF-LC-KJ,0.838
11,NCI-H650,0.818
12,NCI-H322M,0.552
13,NCI-H596,0.352
14,201T,0.651
15,NCI-H441,0.44
16,HCC-78,0.222

# Same assay, conditions: first compound 0.1 µM
row,Cell Line,relative viability
1,NCI-H1915,0.903
2,NCI-H838,0.445
3,A-427,0.754
4,ABC-1,0.536
5,NCI-H2087,0.816
6,NCI-H1734,0.545
7,LCLC-103H,0.506
8,LU99A,0.311
9,NCI-H460,0.438
10,HCC-15,0.773
11,EMC-BAC-2,0.474
12,NCI-H1792,0.249
13,LC-2-ad,0.396
14,NCI-H2085,0.458
15,NCI-H727,0.32
16,NCI-H647,0.39
17,NCI-H3122,0.596
18,LCLC-97TM1,0.194
19,NCI-H23,0.493
20,NCI-H2347,0.659
21,LXF-289,0.724
22,RERF-LC-KJ,0.464
23,NCI-H650,0.834
24,NCI-H596,0.356
25,201T,0.67
26,NCI-H441,0.402
27,HCC-78,0.214

# Same assay, conditions: first compound 0.3162 µM
row,Cell Line,relative viability
1,NCI-H1915,0.908
2,A-427,0.564
3,ABC-1,0.658
4,EKVX,0.501
5,NCI-H1734,0.432
6,LCLC-103H,0.584
7,LU99A,0.297
8,NCI-H460,0.271
9,HCC-15,0.727
10,EMC-BAC-2,0.454
11,NCI-H1792,0.259
12,LC-2-ad,0.635
13,NCI-H2085,0.664
14,NCI-H727,0.568
15,HARA,0.459
16,NCI-H3122,0.798
17,LCLC-97TM1,0.39
18,NCI-H23,0.476
19,HCC-827,1.03
20,NCI-H2347,0.754
21,LXF-289,0.698
22,NCI-H1666,0.482
23,RERF-LC-KJ,0.707
24,NCI-H650,0.534
25,NCI-H322M,0.719
26,NCI-H596,0.429
27,201T,0.702
28,NCI-H441,0.544
29,HCC-78,0.429

# Same assay, conditions: first compound 1 µM
row,Cell Line,relative viability
1,NCI-H1915,0.85
2,NCI-H838,0.626
3,A-427,0.738
4,ABC-1,0.753
5,EKVX,0.451
6,NCI-H2087,0.802
7,NCI-H1734,0.367
8,LCLC-103H,0.59
9,LU99A,0.286
10,NCI-H460,0.296
11,HCC-15,0.578
12,EMC-BAC-2,0.544
13,NCI-H1792,0.234
14,LC-2-ad,0.432
15,NCI-H2085,0.416
16,NCI-H727,0.315
17,NCI-H647,0.434

row,Cell Line,relative viability
1,HARA,0.486
2,NCI-H3122,0.69
3,CAL-12T,0.406
4,LCLC-97TM1,0.149
5,NCI-H23,0.452
6,HCC-827,0.981
7,NCI-H2347,0.667
8,LXF-289,0.758
9,NCI-H1666,0.331
10,RERF-LC-KJ,0.597
11,NCI-H650,0.771
12,NCI-H322M,0.572
13,NCI-H596,0.388
14,201T,0.677
15,NCI-H441,0.35
16,HCC-78,0.185
